{"source": "patent US7388027B2", "about": "“Bicyclic compounds as modulators of androgen receptor function and method” (Bristol-Myers Squibb Company, priority 2004, dated 2008)", "key": {"[1]": {"tested_on": "endogenous glucocorticoid receptor (A549 cells, AP-1 luciferase reporter)", "assay": "In vitro assay to measure GR-induced AP-1 transrepression (luciferase reporter in A549 cells)", "assay_type": "cell-based", "details": "concentration of ≦10 μM; 10 ng/mL PMA; 7 h; typical value", "protocol": "The AP-1 assay is a cell-based luciferase reporter assay. A549 cells, which contain endogenous glucocorticoid receptor, were stably transfected with an AP-1 DNA binding site attached to the luciferase gene. Cells are then grown in RPMI+10% fetal calf serum (charcoal-treated)+Penicillin/Streptomycin with 0.5 mg/mL geneticin. Cells are plated the day before the assay at approximately 40000 cells/well. On assay day, the media is removed by aspiration and 20 μL assay buffer (RPMI without phenol red+10% FCS (charcoal-treated)+Pen/Strep) is added to each well. At this point either 20 μL assay buffer (control experiments), the compounds of the present invention (“test compounds”) (dissolved in DMSO and added at varying concentrations) or dexamethasome (100 nM in DMSO, positive control) are added to each well. The plates are then pre-incubated for 15 min at 37° C., followed by stimulation of the cells with 10 ng/mL PMA. The plates are then incubated for 7 h at 37° C. after which 40 μL luciferase substrate reagent is added to each well. Activity is measured by analysis in a luminometer as compared to control experiments treated with buffer or dexamethasome."}, "AR": {"target": "T1, AR (Rattus norvegicus, UniProt P15207)", "T1 sequence (P15207 1-902)": "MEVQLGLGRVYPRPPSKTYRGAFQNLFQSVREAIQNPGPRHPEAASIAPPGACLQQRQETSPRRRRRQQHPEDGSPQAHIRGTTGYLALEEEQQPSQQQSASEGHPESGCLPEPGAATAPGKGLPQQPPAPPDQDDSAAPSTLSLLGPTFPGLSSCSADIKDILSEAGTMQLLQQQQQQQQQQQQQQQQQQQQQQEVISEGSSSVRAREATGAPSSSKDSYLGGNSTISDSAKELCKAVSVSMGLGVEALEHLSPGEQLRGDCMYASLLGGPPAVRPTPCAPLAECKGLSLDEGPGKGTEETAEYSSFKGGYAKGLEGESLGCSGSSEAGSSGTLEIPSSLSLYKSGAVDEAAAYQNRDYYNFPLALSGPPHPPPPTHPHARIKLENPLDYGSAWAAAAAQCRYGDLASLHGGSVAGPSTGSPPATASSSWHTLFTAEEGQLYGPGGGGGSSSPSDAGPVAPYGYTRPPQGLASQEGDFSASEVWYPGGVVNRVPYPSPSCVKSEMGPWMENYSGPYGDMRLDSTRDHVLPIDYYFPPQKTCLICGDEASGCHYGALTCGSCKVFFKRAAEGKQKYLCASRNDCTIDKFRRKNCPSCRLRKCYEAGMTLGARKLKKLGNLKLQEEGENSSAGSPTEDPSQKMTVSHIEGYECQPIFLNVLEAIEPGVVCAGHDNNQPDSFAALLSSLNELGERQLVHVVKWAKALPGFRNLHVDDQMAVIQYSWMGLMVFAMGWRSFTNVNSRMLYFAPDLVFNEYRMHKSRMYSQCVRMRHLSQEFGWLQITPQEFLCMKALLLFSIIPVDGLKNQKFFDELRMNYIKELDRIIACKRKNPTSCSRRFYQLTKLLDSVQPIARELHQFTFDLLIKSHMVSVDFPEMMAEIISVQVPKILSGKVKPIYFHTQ", "excerpt": "The activity of compounds of the present invention as AR agonists was investigated in an immature male rat model, a recognized test of anabolic effects in muscle and sustaining effects in sex organs for a given compound, as described in L. G. Hershberger et al., Proc. Soc. […] Biol. Med., 83, 175 (1953); B. L. Beyler et al, “Methods for evaluating anabolic and catabolic agents in laboratory animals”, J. Amer. Med. Women's Ass., 23, 708 (1968); H. Fukuda et al., “Investigations of the levator ani muscle as an anabolic steroid assay”, Nago Dai. Yak. Ken. Nem. 14, 84 (1966) the disclosures of which are herein incorporated by reference.\nThe basis of this assay lies in the well-defined action of androgenic agents on the maintenance and growth of muscle tissues and sexual accessory organs in animals and man. […] J. Anat. […] I. Quantitative data” Boll.-Soc. Ital. Biol. Sper. […] II. Electron-microscopic observations” Boll.-Soc. Ital. Biol. Sper. 42, 1600 (1966); A. Boris et al., Steroids 15, 61 (1970). As described above, the effects of androgens on maintenance of male sexual accessory organs, such as the prostate and seminal vesicles, is well described. Castration results in rapid involution and atrophy of the prostate and seminal vesicles. This effect can be reversed by exogenous addition of androgens. […]"}, "[2]": {"tested_on": "wild type AR (MDA 453 cells)", "details": "read-out: Kd for [3H]-DHT, Scatchard analysis, 4 h at 37° C.", "description": "For the whole-cell binding assay, human LNCaP cells (T877A mutant AR) or MDA 453 (wild type AR) in 96-well microtiter plates containing RPMI 1640 or DMEM supplemented with 10% charcoal stripped CA-FBS (Cocaleco Biologicals) respectively, were incubated at 37° C. to remove any endogenous ligand that might be complexed with the receptor in the cells.\nFor the saturation analysis, the difference between the total binding and the non-specific binding, was defined as specific binding. […] See e.g. D. Rodbard, Mathematics and statistics of ligand assays: an illustrated guide: In: J. Langon and J. J. Clapp, eds., Ligand Assay, Masson Publishing U.S.A., Inc., New York, pp. 45-99, (1981), the disclosure of which is herein incorporated by reference.\n[formula] After correcting for non-specific binding, IC50 values were determined. […] C2C12 Mouse Myoblast Transactivation Assay"}}}
{"compound": "C[C@@H]1C[C@H]2[C@@H]3CCC4=CC(=O)C=C[C@]4(C)[C@@]3(F)[C@@H](O)C[C@]2(C)[C@@]1(O)C(=O)CO", "note": "[dexamethasone]", "values": [{"measurement": "suppression of activity (% inhibition of the reporter system vs buffer control with PMA alone)", "setting": "[1]", "result": 65, "unit": "%"}]}
{"compound": "CCC(=O)O[C@H]1CC[C@H]2[C@@H]3CCC4=CC(=O)CC[C@]4(C)[C@H]3CC[C@]12C", "note": "[TP, testosterone propionate]", "values": [{"measurement": "EC50 (increase in organ weight)", "setting": "AR; immature castrated rats", "result": "~0.03", "unit": "mg"}, {"measurement": "potency relative to free T", "setting": "AR; organ weight increase, rats", "result": "10-30 fold"}]}
{"compound": "tritiated dihydrotestosterone [[^3H]-DHT]", "values": [{"measurement": "Kd", "setting": "[2]", "result": 0.7, "unit": "nM"}]}
